Six compounds from patent publication US20230002357A1, “7-PYRIMIDINE-2-YL-OXY-INDAZOLE DERIVATIVES AND THEIR USE AS HERBICIDES” (SYNGENTA CROP PROTECTION AG, priority 2019, published 2023) can be followed below.

Structures are written as SMILES.

Common to all, as to type: in vivo
What all share (conditions): 250 g/ha, evaluated after 13 days

For assay [1], the system named is Setaria faberi (SETFA). The assay is described as follows: Pre-emergence Test, glasshouse, SETFA. The gist of the method:
(§1)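 Pots of standard soil were sown and sprayed 1 day (pre-emergence) or 8 days (post-emergence) after sowing with compound in acetone/water (50:50) containing 0.5% Tween 20, at 250 g/ha unless otherwise stated. Glasshouse conditions were 24/16 °C day/night, 14 h light, 65% humidity. Percentage damage was assessed after 13 days and scored 1–5 (5=81-100%, 1=0-20%).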

In assay [2] the test system is Setaria faberi (SETFA). The assay is described as follows: Post-emergence Test, glasshouse, SETFA. The gist of the method: as §1
Assay [3] relates to ABUTH. The assay is described as follows: Pre-emergence Test, glasshouse, ABUTH. The gist of the method:
as §1

Assay [4] deals with Echinochloa crus-galli (ECHCG). As to the kind of experiment: Post-emergence Test, glasshouse, ECHCG. Summed up: as §1
For assay [5], the system named is Amaranthus retoflexus (AMARE). As to the kind of experiment: Post-emergence Test, glasshouse, AMARE. Summed up:
as §1

The subject of assay [6] is Echinochloa crus-galli (ECHCG). The assay is described as follows: Pre-emergence Test, glasshouse, ECHCG. The gist of the method:
as §1

Assay [7] has as its system Amaranthus retoflexus (AMARE). As to the kind of experiment: Pre-emergence Test, glasshouse, AMARE. The gist of the method: as §1
The test system of assay [8] is IPOHE. The assay is described as follows: Post-emergence Test, glasshouse, IPOHE. The gist of the method:
as §1

The test system of assay [9] is ABUTH. The assay is described as follows: Post-emergence Test, glasshouse, ABUTH. Summed up:
as §1

Assay [10] relates to IPOHE. As to the kind of experiment: Pre-emergence Test, glasshouse, IPOHE. Summed up: as §1

With `CC(C)=CCn1nc(Cl)c2cccc(Oc3ncc(Cl)cn3)c21` [Compound 1.067], the “percentage damage caused to the plant, five-point scale, SETFA” value (“percentage damage caused … SETFA” below) in the assay with Setaria faberi (SETFA) [1] is 4 (4=61-80%); in the assay with Setaria faberi (SETFA) [2], 3 (3=41-60%). The results for the “percentage damage caused to the plant, five-point scale, ABUTH” value (shortened to “percentage damage caused … ABUTH”) with ABUTH [3] and with ABUTH [9] were 2 (2=21-40%) and 3 (3=41-60%), respectively. Also, the “percentage damage caused to the plant, five-point scale, ECHCG” value (“percentage damage caused … ECHCG” for short) in [4] and in assay [6] was 3 (3=41-60%) each time. The figures for the “percentage damage caused to the plant, five-point scale, AMARE” value (“percentage damage caused … AMARE” below) in [5] and in [7] were 4 (4=61-80%) and 3 (3=41-60%), respectively. For the same compound, the “percentage damage caused to the plant, five-point scale, IPOHE” value (shortened to “percentage damage caused … IPOHE”) in the assay on IPOHE [8] is on record as 2 (2=21-40%); in the assay on IPOHE [10], 1 (1=0-20%).
As for `FC(F)(F)CCCCn1nc(Cl)c2cccc(Oc3ncc(Cl)cn3)c21` [Compound 1.068], the “percentage damage caused … SETFA” value is 5 (5=81-100%) with Setaria faberi (SETFA) [1] and 3 (3=41-60%) in the assay on Setaria faberi (SETFA) [2]. For the same compound, the “percentage damage caused … ABUTH” value in the assay on ABUTH [3] was 2 (2=21-40%); in the assay on ABUTH [9], 4 (4=61-80%). For the same compound, the entries for the “percentage damage caused … ECHCG” value in [4] and in assay [6] were 3 (3=41-60%) and 4 (4=61-80%), respectively. In addition, the “percentage damage caused … AMARE” value in assay [5] and in assay [7] was 5 (5=81-100%) throughout. The “percentage damage caused … IPOHE” value with IPOHE [8] and in the assay with IPOHE [10] was 2 (2=21-40%) each time.
As for `Cl/C=C/Cn1nc(Cl)c2cccc(Oc3ncc(Cl)cn3)c21` [Compound 1.069], the “percentage damage caused … SETFA” value with Setaria faberi (SETFA) [1] is 5 (5=81-100%); in the assay on Setaria faberi (SETFA) [2], 2 (2=21-40%). In addition, the “percentage damage caused … ABUTH” value in the assay on ABUTH [3] is recorded as 2 (2=21-40%); in the assay on ABUTH [9], 4 (4=61-80%). Further, the “percentage damage caused … ECHCG” value in assay [4] and in assay [6] was 3 (3=41-60%) in each case. Further, the “percentage damage caused … AMARE” value in assay [5] is 5 (5=81-100%); in assay [7] it was 3 (3=41-60%). Besides, the “percentage damage caused … IPOHE” value with IPOHE [8] is 2 (2=21-40%); in the assay on IPOHE [10], 1 (1=0-20%).
On to `Cc1cnc(Oc2cccc3c(C(F)(F)F)nn(CCCC(F)(F)F)c23)nc1` [Compound 1.070], for which the figures for the “percentage damage caused … SETFA” value with Setaria faberi (SETFA) [1] and with Setaria faberi (SETFA) [2] were 4 (4=61-80%) and 3 (3=41-60%), respectively. For the same compound, the “percentage damage caused … ABUTH” value in the assay with ABUTH [3] was 3 (3=41-60%); in the assay with ABUTH [9], 5 (5=81-100%). Further, the “percentage damage caused … ECHCG” value in [4] and in assay [6] was 4 (4=61-80%) each time. The “percentage damage caused … AMARE” value in [5] is recorded as 3 (3=41-60%); in assay [7], 5 (5=81-100%). The “percentage damage caused … IPOHE” value was 3 (3=41-60%) with IPOHE [8] and 1 (1=0-20%) in the assay on IPOHE [10].
For `Fc1cnc(Oc2cccc3c(C(F)(F)F)nn(CCCC(F)(F)F)c23)nc1` [Compound 1.071], the “percentage damage caused … SETFA” value in the assay with Setaria faberi (SETFA) [1] was 5 (5=81-100%); in the assay on Setaria faberi (SETFA) [2], 4 (4=61-80%). The “percentage damage caused … ABUTH” value in the assay on ABUTH [3] is on record as 3 (3=41-60%); in the assay with ABUTH [9], 5 (5=81-100%). The “percentage damage caused … ECHCG” value in assay [4] is recorded as 4 (4=61-80%); in assay [6], 5 (5=81-100%). Moreover, the “percentage damage caused … AMARE” value in assay [5] and in [7] was 5 (5=81-100%) each time. The “percentage damage caused … IPOHE” value in the assay with IPOHE [8] is on record as 4 (4=61-80%); with IPOHE [10] it was 2 (2=21-40%).
In the case of `FC(F)(F)CCCn1nnc2c(Cl)ccc(Oc3ncc(Cl)cn3)c21` [Compound 1.072], the “percentage damage caused … SETFA” value is listed as 4 (4=61-80%) in the assay on Setaria faberi (SETFA) [1] and 3 (3=41-60%) in the assay on Setaria faberi (SETFA) [2]. The “percentage damage caused … ABUTH” value in the assay with ABUTH [3] and in the assay on ABUTH [9] was 1 (1=0-20%) throughout. For the same compound, the “percentage damage caused … ECHCG” value in assay [4] was 3 (3=41-60%); in assay [6] it was 2 (2=21-40%). In addition, the “percentage damage caused … AMARE” value in assay [5] and in assay [7] was 4 (4=61-80%) each time. The “percentage damage caused … IPOHE” value is listed as 3 (3=41-60%) in the assay with IPOHE [8] and 1 (1=0-20%) with IPOHE [10].
